From patent US20100056526A1, “HETEROMONOCYCLIC COMPOUND AND USE THEREOF” (Takeda Pharmaceutical Company Limited, priority 2006, published 2010)

Assays:
human AT1 receptor = target: T1, human AT1 receptor (Homo sapiens, UniProt P30556); assay: Binding assay using human AT1 receptor-expressing CHO-K1 cell membrane fraction ([125I]-angiotensin II); conditions: 22.5 pM [125I]-angiotensin II, 9 μg AT1 membrane, 1 hr room temperature; read-out: AT1 receptor binding inhibitory action (IC50 (nM))
T1 construct: expressed in transfected cells; host or cells: CHO-K1
T1 sequence (P30556 1-359): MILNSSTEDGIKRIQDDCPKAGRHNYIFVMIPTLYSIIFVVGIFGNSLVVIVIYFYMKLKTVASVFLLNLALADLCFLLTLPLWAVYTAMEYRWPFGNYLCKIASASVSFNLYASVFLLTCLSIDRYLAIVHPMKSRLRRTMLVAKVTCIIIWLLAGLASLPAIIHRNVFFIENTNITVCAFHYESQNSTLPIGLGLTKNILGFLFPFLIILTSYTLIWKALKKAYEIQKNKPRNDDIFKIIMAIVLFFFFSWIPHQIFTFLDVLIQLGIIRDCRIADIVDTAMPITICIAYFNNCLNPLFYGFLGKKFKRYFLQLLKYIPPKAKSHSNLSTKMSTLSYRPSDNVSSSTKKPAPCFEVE
Procedure, shortened: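 Radioligand displacement: test compound competed with [125I]-angiotensin II (22.5 pM) on stable CHO-K1 AT1 membrane fraction, 1 hr, room temperature, Tris pH 7.4/MgCl2 buffer ± 0.3 mg/mL BSA. Filtration then scintillation counting; 1 μM CV-11974 defined nonspecific binding. Values are IC50s.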

PPARγ = target: T2, PPARγ (Homo sapiens, UniProt P37231); assay: Evaluation of PPARγ activating action (luciferase reporter in PPARγ:RXRα:4ERPP/CHO-K1 cells); assay type: cell-based; conditions: CHO-K1, 24 h; test compound 10^−6 M; luciferase activity relative to control compound X (1 μM) = 100%, non-administration group = 0%; read-out: PPARγ activating action (activation % (10^−6 M))
T2 construct: expressed in transfected cells; host or cells: CHO-K1
T2 sequence (P37231 1-477 isoform P37231-2): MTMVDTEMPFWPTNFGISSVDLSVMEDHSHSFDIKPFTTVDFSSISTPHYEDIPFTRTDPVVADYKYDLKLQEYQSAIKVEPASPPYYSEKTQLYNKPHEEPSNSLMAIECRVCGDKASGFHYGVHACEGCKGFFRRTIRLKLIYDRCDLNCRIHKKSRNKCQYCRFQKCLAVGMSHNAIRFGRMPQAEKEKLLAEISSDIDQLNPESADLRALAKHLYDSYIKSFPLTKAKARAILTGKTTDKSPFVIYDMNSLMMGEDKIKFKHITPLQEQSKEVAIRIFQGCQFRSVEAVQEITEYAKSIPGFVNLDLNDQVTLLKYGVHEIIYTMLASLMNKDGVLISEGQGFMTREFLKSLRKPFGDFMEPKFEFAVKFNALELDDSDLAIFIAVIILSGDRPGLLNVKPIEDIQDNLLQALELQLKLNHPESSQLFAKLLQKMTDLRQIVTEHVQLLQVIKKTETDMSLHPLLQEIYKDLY
T2 sequence (P19793 1-462 partner): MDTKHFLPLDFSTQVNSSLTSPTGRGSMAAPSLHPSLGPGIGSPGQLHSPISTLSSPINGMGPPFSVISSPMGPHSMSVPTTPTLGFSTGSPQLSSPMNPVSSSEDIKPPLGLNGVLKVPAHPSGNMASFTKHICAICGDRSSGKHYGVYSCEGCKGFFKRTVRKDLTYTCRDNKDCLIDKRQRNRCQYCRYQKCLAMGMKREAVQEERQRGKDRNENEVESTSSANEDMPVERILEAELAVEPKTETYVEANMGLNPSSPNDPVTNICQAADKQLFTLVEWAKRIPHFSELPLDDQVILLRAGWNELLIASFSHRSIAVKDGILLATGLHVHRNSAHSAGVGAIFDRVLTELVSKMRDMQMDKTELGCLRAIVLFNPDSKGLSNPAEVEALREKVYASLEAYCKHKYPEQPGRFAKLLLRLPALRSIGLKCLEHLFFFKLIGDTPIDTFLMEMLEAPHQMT
Procedure, shortened: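 Activity is expressed as percent, where vehicle gives 0% and 1 μM compound X gives 100%, based on luciferase luminescence. Reporter CHO-K1 cells co-expressing PPARγ:RXRα with a 4ERPP-driven luciferase were incubated with test compound for one day at 37 °C in medium with 0.1% fatty acid-free BSA.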

SMILES: CCCc1nc(CC)c(CN2CCOCC2)c(=O)n1Cc1ccc(-c2ccccc2-c2noc(=O)[nH]2)cc1 [Example 455, 6-ethyl-5-(morpholin-4-ylmethyl)-3-{[2′-(5-oxo-4,5-dihydro-1,2,4-oxadiazol-3-yl)biphenyl-4-yl]methyl}-2-propylpyrimidin-4(3H)-one]
- IC50 (human AT1 receptor): 2 nM
- activation at 1 µM (PPARγ): 16%

SMILES: CCCc1nc(C)n(-c2ccc(OC3CCC(=O)C(C)C3)cc2)c(=O)c1Cc1ccc(-c2ccccc2-c2noc(O)n2)cc1 (stereo not shown) [Example 356, 2-methyl-3-{4-[(3-methyl-4-oxocyclohexyl)oxy]phenyl}-5-{[2′-(5-oxo-4,5-dihydro-1,2,4-oxadiazol-3-yl)biphenyl-4-yl]methyl}-6-propylpyrimidin-4(3H)-one]
- IC50 (human AT1 receptor): 1.1 nM
- activation at 1 µM (PPARγ): 16.6%

SMILES: CCCc1nc(CC)c(-c2ccc(OC(C)C)c(F)c2)c(=O)n1Cc1ccc(-c2ccccc2-c2noc(=O)[nH]2)cc1 [Example 460, 6-ethyl-5-(3-fluoro-4-isopropoxyphenyl)-3-{[2′-(5-oxo-4,5-dihydro-1,2,4-oxadiazol-3-yl)biphenyl-4-yl]methyl}-2-propylpyrimidin-4(3H)-one]
- IC50 (human AT1 receptor): 2.2 nM
- activation at 1 µM (PPARγ): 30%

SMILES: CCCCc1nc(C)n(CCc2ccc(OC)cc2)c(=O)c1Cc1ccc(-c2ccccc2-c2noc(=O)[nH]2)cc1 [Example 94, 6-butyl-3-[2-(4-methoxyphenyl)ethyl]-2-methyl-5-{[2′-(5-oxo-4,5-dihydro-1,2,4-oxadiazol-3-yl)biphenyl-4-yl]methyl}pyrimidin-4(3H)-one]
- IC50 (human AT1 receptor): 1.8 nM
- activation at 1 µM (PPARγ): 41.5%

SMILES: CCCc1nc(C)n(-c2ccc(OC(C)C#N)cc2)c(=O)c1Cc1ccc(-c2ccccc2-c2noc(=O)[nH]2)cc1 (stereo not shown) [Example 327, 2-{4-[2-methyl-6-oxo-5-{[2′-(5-oxo-4,5-dihydro-1,2,4-oxadiazol-3-yl)biphenyl-4-yl]methyl}-4-propylpyrimidin-1(6H)-yl]phenoxy}propanenitrile]
- IC50 (human AT1 receptor): 2.2 nM
- activation at 1 µM (PPARγ): 22.6%

SMILES: CCCCc1nn(-c2ccc3c(c2)CC(C)(C)O3)c(=O)n1Cc1ccc(-c2ccccc2-c2noc(=O)[nH]2)cc1 [Example 136, 3-(4′-{[3-butyl-1-(2,2-dimethyl-2,3-dihydro-1-benzofuran-5-yl)-5-oxo-1,5-dihydro-4H-1,2,4-triazol-4-yl]methyl}biphenyl-2-yl)-1,2,4-oxadiazol-5(4H)-one]
- IC50 (human AT1 receptor): 2.9 nM
- activation at 1 µM (PPARγ): 32.9%

SMILES: CCCCc1nc(C)n(-c2ccccc2)c(=O)c1Cc1c(F)cc(-c2ccccc2-c2noc(=O)[nH]2)cc1F [Example 204, 6-butyl-5-{[3,5-difluoro-2′-(5-oxo-4,5-dihydro-1,2,4-oxadiazol-3-yl)biphenyl-4-yl]methyl}-2-methyl-3-phenylpyrimidin-4(3H)-one]
- IC50 (human AT1 receptor): 1.6 nM
- activation at 1 µM (PPARγ): 27.4%

SMILES: CCCc1nc(CC)c(-c2ccc(OC(C)C)cc2F)c(=O)n1Cc1ccc(-c2ccccc2-c2noc(O)n2)cc1 [Example 458, 6-ethyl-5-(2-fluoro-4-isopropoxyphenyl)-3-{[2′-(5-oxo-4,5-dihydro-1,2,4-oxadiazol-3-yl)biphenyl-4-yl]methyl}-2-propylpyrimidin-4(3H)-one]
- IC50 (human AT1 receptor): 2.2 nM
- activation at 1 µM (PPARγ): 36%

SMILES: CCCc1nc(OC)n(-c2ccc(O[C@@H]3C[C@@H](C)O[C@@H](C)C3)cc2)c(=O)c1Cc1ccc(-c2ccccc2-c2noc(=O)[nH]2)cc1 [Example 388, 3-(4-{[(2R,4s,6S)-2,6-dimethyltetrahydro-2H-pyran-4-yl]oxy}phenyl)-2-methoxy-5-{-[2′-(5-oxo-4.,5-dihydro-1,2,4-oxadiazol-3-yl)biphenyl-4-yl]methyl}-6-propylpyrimidin-4(3H)-one]
- IC50 (human AT1 receptor): 1.6 nM
- activation at 1 µM (PPARγ): 34.4%

SMILES: CCCc1nc(CC)n(-c2ccc(OC3CCOC(C)(C)C3)cc2)c(=O)c1Cc1ccc(-c2ccccc2-c2noc(=O)[nH]2)cc1 (stereo not shown) [Example 413, 3-{4-[(2,2-dimethyltetrahydro-2H-pyran-4-yl)oxy]phenyl}-2-ethyl-5-{[2′-(5-oxo-4,5-dihydro-1,2,4-oxadiazol-3-yl)biphenyl-4-yl]methyl}-6-propylpyrimidin-4(3H)-one]
- IC50 (human AT1 receptor): 1.7 nM
- activation at 1 µM (PPARγ): 18.9%

SMILES: CCCc1nc(CC)n(-c2ccc(O[C@H]3CC[C@@H](O)CC3)cc2)c(=O)c1Cc1ccc(-c2ccccc2-c2noc(=O)[nH]2)cc1 [Example 415, 2-ethyl-3-{4-[(cis-4-hydroxycyclohexyl)oxy]phenyl}-5-{[2′-(5-oxo-4,5-dihydro-1,2,4-oxadiazol-3-yl)biphenyl-4-yl]methyl}-6-propylpyrimidin-4(3H)-one]
- IC50 (human AT1 receptor): 1 nM
- activation at 1 µM (PPARγ): 49.7%
